Test results from US5143903A, “Method of treatment with tripeptide pharmaceutical compositions as immunomodulators” (priority 1989, dated 1992).

Assays:
[1] = tested on: Mononuclear cells of peripheral human blood (PBMC); assay: Test on the proliferation of mononuclear cells; type: cell-based; parameters: key: expressing with +, ++ and +++ the substances acting as stimulants (from the least to the most effective); expressing with +, ++ and +++ the substances acting as stimulants (from the least to the most effective); expressing with +, ++ and +++ the substances acting as stimulants (from the least to the most effective); with -, -- and --- the substances inhibiting normal cell growth; with -, -- and --- the substances inhibiting normal cell growth; with -, -- and --- the substances inhibiting normal cell growth; The inactive compounds were expressed with =; separating with / the effects of the higher doses from those of the lower doses; conditions: Table 2, tritium thymidine; for Effect on cell proliferation, ACTIVATOR USED Interl. 2: PBMC activated with Interleukin 2, 6 days
Description: Mononuclear cells of peripheral human blood (PBMC), provided by healthy volunteers, were purified according to techniques normally used in haematology laboratories, and were finally suspended, at a concentration of 1.000.000/ml in the bed RPMI 1640 (company Flow Laboratories), enriched with 10% of heat inactivated human serum, 2 mM of glutamine and 40 mcg/ml of Gentalyn (from Shering Co.).
The cells were cultivated (100.000/pit) in triplicate on plates of 96 flat-bottomed pits, for a varying number of days according to the activating substances used (6 days for Interleukin 2 and PPD, 3 days for PHA and ConA), in 200 microliters of the suspension bed, in an incubator at 37° C. with 5% CO2. During the last 17 hours of culture the cells were marked with 0,5 microCuries of tritium thymidine (TdR). At the end of the incubation period, the radioactivity present in the cells was gathered on fiberglass filters. Embedded TdR was measured in a beta-radiation counter.
The results are expressed as arithmetic averages of the counts.
On the cells cultivated in this manner the effect of the substances derived from snake poison was tested.
Using the same methods employed in the test described above, a series of compounds having a peptide structure according to the invention, along with other control compounds, were tested for their imunomodulant activity.

T lymphocites = assay: Comparison with Interferon gamma: proliferative response of T lymphocites after presentation of B lymphocites treated with PPD; type: cell-based; conditions: 1000 u/ml
Description: With the aim of more detailed study of the mechanism of action, the effect of the tripeptide PYR-LEU-TRP has been compared to that of Interferon gamma as regards the stimulation of the proliferative response of T lymphocites after presentation of the B lymphocites treated with PPD.

CC(C)C[C@H](NP(=O)(O)O[C@@H]1O[C@@H](C)[C@H](O)[C@@H](O)[C@H]1O)C(=O)N[C@@H](Cc1c[nH]c2ccccc12)C(=O)O [Phosphoramidon]
Effect on cell proliferation, ACTIVATOR USED Interl. 2 [1]: +++
Effect on cell proliferation, ACTIVATOR USED PPD ([1]; PBMC activated with PPD, 6 days): +++

Z--PRO--LEU--TRP
Effect on cell proliferation, ACTIVATOR USED Interl. 2 [1]: +++

gamma Interferon: Interferon gamma, compared with the tripeptide at 1000 u/ml
increase of the basal proliferative response (T lymphocites): approximately two and a half times
